# Results published in patent publication US20090124690A1, “Generation of Combinatorial Synthetic Libraries and Screening for Novel Proadhesins and Nonadhesins” (priority 2000, published 2009).
# What was measured:
# Colletotrichum acutatum = assay: Petri dish assay for activity against Colletotrichum acutatum (spore adhesion); conditions: for Inhibition of adhesion of spores to polystyrene surfaces, Colletotrichum acutatum: compound tested at 0.5%
# [1] = tested on: MRSA Staphylococcus aureus; assay: Anti-adhesion assay, MRSA Staphylococcus aureus; format: cell-based; conditions: for ICMAX / ICMAX: level of maximal inhibition (ICxx): anti-adhesion, MRSA S. aureus, cell reads 'ICxx - concentration'
# P. aerug. = assay: Library screening against P. aeruginosa (IC50); format: cell-based, Pseudomonas aeruginosa; conditions: Table 3
# Dengue virus = assay: Direct binding assay (DART TOF-MS), Dengue virus; conditions: FIG. 6
# Description: The virus particles were collected and fixed in 100% (USP) ethanol prior to DART TOF-MS analysis. The closed end of a borosilicate glass capillary tube was immersed in the virion solution and passed through the DART He plasma to obtain mass spectra of virion surface-bound chemistries. […] The same conditions were used to assess the binding of composition here to bacterial species. • 1. […] Viruses and Cells
# (§1) DENV-1 strain HI-1, DENV-2 strain NG-2, DENV-3 strain H-78, and DENV-4 strain H-42 were obtained from R. Tesh at the World Health Organization Arbovirus Reference Laboratory at the University of Texas at Galveston. Viruses were propagated in the African green monkey kidney epithelial cell line, LLCMK-2, a gift of K. Olsen at Colorado State University. LLCMK-2 cells were grown in DMEM with 10% (v/v) FBS, 2 mM Glutamax, 100 U/ml penicillin G, 100 μg/ml streptomycin and 0.25 μg/ml amphotericin B, at 37° C. with 5% (V/V) CO2.
# Dengue 2 = assay: Anti-infection (adhesion) of viruses: Dengue 2, focus forming unit (FFU) reduction assay on LLCMK-2 cells; format: cell-based, Dengue virus (DENV-2 strain NG-2); conditions: FIG. 6
# Description: as §1
# LLCMK-2 target cells were seeded at a density of 1×10^5 cells in each well of a 6-well plate 24 h prior to infection. Approximately 200 FFU of virus were incubated with or without chemistries in serum-free DMEM for 1 h at rt. […] Virus foci were detected using supernatant from mouse anti-DENV hybridoma E60 (obtained from M. Diamond at Washington University) followed by horseradish peroxidase-conjugated goat anti-mouse immunoglobulin (Pierce, Rockford, Ill.) and developed using AEC chromogen substrate (Dako, Carpinteria, Calif.). Results were expressed as the average of at least two independent trials with three replicates in each trial.
# [2] = tested on: Staphylococcus epidermidis; assay: 96-well plate assay for activity against Staphylococcus epidermidis (adhesion, Syto 13); conditions: compound tested at 0.5%
SMILES,"Inhibition of adhesion of spores to polystyrene surfaces, Colletotrichum acutatum (Colletotrichum acutatum)",ICMAX [1],ICMAX: level of maximal inhibition (ICxx) [1],also measured
CNC(=O)C(Cc1ccc(OS(=O)(=O)C(F)(F)F)cc1)NC(=O)COCC(=O)Nc1cccc(OS(=O)(=O)C(F)(F)F)c1 (stereo not drawn) [Compound B02],−16%,–,–,–
"O=C(O)/C=C/c1ccc(OS(=O)(=O)O)cc1 [Zosteric Acid, reference compound]",–,90 µM,IC100,–
CCN(CCOC(=O)/C=C/c1ccc(O)cc1)Cc1cc(Cl)ccc1O [Compound I],–,120 µM,IC70,"IC50 ([1]; Staphylococcus aureus, MRSA): 82 µM; IC50 (% wt/vol) P. aerug. (P. aerug.): 0.001 % wt/vol; IC50 (% wt/vol) C. acut. (Colletotrichum acutatum; Table 3): 0.004 % wt/vol; direct binding to Dengue virus (DART-MS) (Dengue virus): direct binding; Dengue infection when compound is bound (Dengue 2): inhibited"
CNC(=O)C(Cc1ccc(OS(C)(=O)=O)cc1)NC(=O)COCC(=O)Nc1cccc(OS(C)(=O)=O)c1 (stereo not drawn) [Compound A02],−12%,–,–,"Inhibition of adhesion of cells to polystyrene surfaces, Staphylococcus epidermidis [2]: 22%"
